{
  "source": "PubChem BioAssay (NCI)",
  "assay_in_all_cases": "growth of human tumour cells (NCI), 48 h",
  "key": {"786-0 renal": {"system": "786-0 renal"}, "A498 renal": {"system": "A498 renal"}, "A549 NSCLC": {"system": "A549 NSCLC"}, "ACHN renal": {"system": "ACHN renal"}, "CAKI-1 renal": {"system": "CAKI-1 renal"}, "EKVX NSCLC": {"system": "EKVX NSCLC"}, "HCC-2998 colon": {"system": "HCC-2998 colon"}, "HCT-116 colon": {"system": "HCT-116 colon"}, "HCT-15 colon": {"system": "HCT-15 colon"}, "HL-60(TB) leukemia": {"system": "HL-60(TB) leukemia"}, "HOP-62 NSCLC": {"system": "HOP-62 NSCLC"}, "HT29 colon": {"system": "HT29 colon"}, "IGROV1 ovarian": {"system": "IGROV1 ovarian"}, "K-562 leukemia": {"system": "K-562 leukemia"}, "KM12 colon": {"system": "KM12 colon"}, "KM20L2 colon": {"system": "KM20L2 colon"}, "LOX IMVI melanoma": {"system": "LOX IMVI melanoma"}, "LXFL 529 NSCLC": {"system": "LXFL 529 NSCLC"}, "M14 melanoma": {"system": "M14 melanoma"}, "M19-MEL melanoma": {"system": "M19-MEL melanoma"}, "MALME-3M melanoma": {"system": "MALME-3M melanoma"}, "MOLT-4 leukemia": {"system": "MOLT-4 leukemia"}, "NCI-H226 lung": {"system": "NCI-H226 lung"}},
  "note": "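96-well plates; 48 h exposure; 5 concentrations. Endpoints by linear interpolation between flanking doses. Not reached: highest tested concentration assigned. GI50 marks 50% less growth. Definition used: TGI = concentration required for complete inhibition of growth.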",
  "data": [
    {"smiles": "CC(=O)[CH-]C(=O)c1ccccc1.CC(=O)[CH-]C(=O)c1ccccc1.[O-]Cc1cccs1.[O-]Cc1cccs1.[Ti+4]", "values": [
      {"measurement": "GI50", "setting": "786-0 renal", "result": "> 100", "unit": "µM"},
      {"measurement": "TGI", "setting": "786-0 renal", "result": "> 100", "unit": "µM"},
      {"measurement": "GI50", "setting": "A498 renal", "result": "> 100", "unit": "µM"},
      {"measurement": "TGI", "setting": "A498 renal", "result": "> 100", "unit": "µM"},
      {"measurement": "GI50", "setting": "A549 NSCLC", "result": 97.9, "unit": "µM"},
      {"measurement": "TGI", "setting": "A549 NSCLC", "result": "> 100", "unit": "µM"},
      {"measurement": "GI50", "setting": "ACHN renal", "result": "> 100", "unit": "µM"},
      {"measurement": "TGI", "setting": "ACHN renal", "result": "> 100", "unit": "µM"},
      {"measurement": "GI50", "setting": "CAKI-1 renal", "result": 71.6, "unit": "µM"},
      {"measurement": "TGI", "setting": "CAKI-1 renal", "result": "> 100", "unit": "µM"},
      {"measurement": "GI50", "setting": "EKVX NSCLC", "result": 37.4, "unit": "µM"},
      {"measurement": "TGI", "setting": "EKVX NSCLC", "result": "> 100", "unit": "µM"},
      {"measurement": "GI50", "setting": "HCC-2998 colon", "result": "> 100", "unit": "µM"},
      {"measurement": "TGI", "setting": "HCC-2998 colon", "result": "> 100", "unit": "µM"},
      {"measurement": "GI50", "setting": "HCT-116 colon", "result": 33, "unit": "µM"},
      {"measurement": "TGI", "setting": "HCT-116 colon", "result": "> 100", "unit": "µM"},
      {"measurement": "GI50", "setting": "HCT-15 colon", "result": 20, "unit": "µM"},
      {"measurement": "TGI", "setting": "HCT-15 colon", "result": 46.2, "unit": "µM"},
      {"measurement": "GI50", "setting": "HL-60(TB) leukemia", "result": 4.26, "unit": "µM"},
      {"measurement": "TGI", "setting": "HL-60(TB) leukemia", "result": "> 100", "unit": "µM"},
      {"measurement": "GI50", "setting": "HOP-62 NSCLC", "result": "> 100", "unit": "µM"},
      {"measurement": "TGI", "setting": "HOP-62 NSCLC", "result": "> 100", "unit": "µM"},
      {"measurement": "GI50", "setting": "HT29 colon", "result": 17.5, "unit": "µM"},
      {"measurement": "TGI", "setting": "HT29 colon", "result": 46.6, "unit": "µM"},
      {"measurement": "GI50", "setting": "IGROV1 ovarian", "result": 89.9, "unit": "µM"},
      {"measurement": "TGI", "setting": "IGROV1 ovarian", "result": "> 100", "unit": "µM"},
      {"measurement": "GI50", "setting": "K-562 leukemia", "result": 31.2, "unit": "µM"},
      {"measurement": "TGI", "setting": "K-562 leukemia", "result": "> 100", "unit": "µM"},
      {"measurement": "GI50", "setting": "KM12 colon", "result": 47.9, "unit": "µM"},
      {"measurement": "TGI", "setting": "KM12 colon", "result": "> 100", "unit": "µM"},
      {"measurement": "GI50", "setting": "KM20L2 colon", "result": 19.8, "unit": "µM"},
      {"measurement": "TGI", "setting": "KM20L2 colon", "result": "> 100", "unit": "µM"},
      {"measurement": "GI50", "setting": "LOX IMVI melanoma", "result": 18.1, "unit": "µM"},
      {"measurement": "TGI", "setting": "LOX IMVI melanoma", "result": 58, "unit": "µM"},
      {"measurement": "GI50", "setting": "LXFL 529 NSCLC", "result": 25.3, "unit": "µM"},
      {"measurement": "TGI", "setting": "LXFL 529 NSCLC", "result": "> 100", "unit": "µM"},
      {"measurement": "GI50", "setting": "M14 melanoma", "result": 21.6, "unit": "µM"},
      {"measurement": "TGI", "setting": "M14 melanoma", "result": "> 100", "unit": "µM"},
      {"measurement": "GI50", "setting": "M19-MEL melanoma", "result": 82, "unit": "µM"},
      {"measurement": "TGI", "setting": "M19-MEL melanoma", "result": "> 100", "unit": "µM"},
      {"measurement": "GI50", "setting": "MALME-3M melanoma", "result": "> 100", "unit": "µM"},
      {"measurement": "TGI", "setting": "MALME-3M melanoma", "result": "> 100", "unit": "µM"},
      {"measurement": "GI50", "setting": "MOLT-4 leukemia", "result": "> 100", "unit": "µM"},
      {"measurement": "TGI", "setting": "MOLT-4 leukemia", "result": "> 100", "unit": "µM"},
      {"measurement": "GI50", "setting": "NCI-H226 lung", "result": 82.3, "unit": "µM"}
    ]}
  ]
}
